Reference: patent publication US20210038607A1, “OXADIAZOLYLTHIOPHENE DERIVATIVES USEFUL AS HISTONE DEACETYLASE INHIBITORS” (Karus Therapeutics Limited, priority 2018, published 2021)

Key:
Human HDAC8 = target: T1, Human HDAC8 (Homo sapiens, UniProt Q9BY41); assay: HDAC8 biochemical assay, AMC-labeled peptide substrate; settings: read-out: HDAC Isoform IC50 (nM) 8
T1 construct: full length with C-terminal His tag, MW=42.6 kDa; His (C); host or cells: baculovirus expression system
T1 sequence (Q9BY41 1-377): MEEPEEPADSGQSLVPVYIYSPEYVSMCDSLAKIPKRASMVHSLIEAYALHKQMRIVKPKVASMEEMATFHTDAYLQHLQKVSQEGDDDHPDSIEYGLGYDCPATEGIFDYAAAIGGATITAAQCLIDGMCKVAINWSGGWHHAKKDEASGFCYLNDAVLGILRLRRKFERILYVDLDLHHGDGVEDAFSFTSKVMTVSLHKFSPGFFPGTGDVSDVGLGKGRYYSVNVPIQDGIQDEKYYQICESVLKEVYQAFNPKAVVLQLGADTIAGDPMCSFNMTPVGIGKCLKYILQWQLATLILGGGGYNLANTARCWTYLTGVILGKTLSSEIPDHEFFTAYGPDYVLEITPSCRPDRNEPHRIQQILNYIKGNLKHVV
Procedure: (§1) Activity against all zinc-dependent HDACs 1 to 11 was assessed by using an acetylated AMC-labeled peptide substrate. The substrate RHKK(Ac)AMC was used for HDAC1, HDAC2, HDAC3, HDAC6 and HDAC10; the substrate used for HDAC8 was RHK(Ac)K(Ac)AMC. Activity against the class IIa HDACs (HDAC4, 5, 7, 9) and HDAC11 was determined using a class IIa-specific substrate, BOC-Lys(trifluoroacetyl)-AMC (“Trifluoroacetyl Lysine”; see Lahm et al, 2007, PNAS, 104, 17335-17340). All assays were based on the AMC-labeled substrate and developer combination.
(§2) The protocol involved a two-step reaction: first, the substrate with the acetylated lysine side chain is incubated with a sample containing HDAC activity, to produce the deacetylated products, which are then digested in the second step by the addition of developer to produce the fluorescent signal proportional to the amount of deacetylated substrates.
Human HDAC8 (GenBankAccession No. NM_018486), full length with C-terminal His tag, MW=42.6 kDa, expressed in a baculovirus expression system.
(§3) Assay Buffer: 50 mM Tris-HCl, pH8.0, 137 mM NaCl, 2.7 mM KCl, 1 mM MgC2. Before use, 1 mg/mL BSA and DMSO are added.
HDAC8: 1 ng/ul HDAC8 and 100 µM HDAC8 substrate are in the reaction buffer with 1% DMSO final. Incubate for 2 hours at 30° C.
(§4) Stage 1: Deacetylation of substrate by incubation of HDAC enzymes with compounds
(§5) Stage 2: Development by addition of Developer to digest the deacetylated substrate, and generate the fluorescent colour; Detection: 360/460 Ex/Em

Human HDAC7 = target: T2, Human HDAC7 (Homo sapiens, UniProt Q8WUI4); assay: HDAC7 biochemical assay, class IIa-specific substrate; settings: read-out: HDAC Isoform IC50 (nM) 7
T2 construct: (a.a. 518-end) with N-terminal GST tag; GST (N); host or cells: baculovirus expression system
T2 sequence (Q8WUI4 518-952 limits assumed): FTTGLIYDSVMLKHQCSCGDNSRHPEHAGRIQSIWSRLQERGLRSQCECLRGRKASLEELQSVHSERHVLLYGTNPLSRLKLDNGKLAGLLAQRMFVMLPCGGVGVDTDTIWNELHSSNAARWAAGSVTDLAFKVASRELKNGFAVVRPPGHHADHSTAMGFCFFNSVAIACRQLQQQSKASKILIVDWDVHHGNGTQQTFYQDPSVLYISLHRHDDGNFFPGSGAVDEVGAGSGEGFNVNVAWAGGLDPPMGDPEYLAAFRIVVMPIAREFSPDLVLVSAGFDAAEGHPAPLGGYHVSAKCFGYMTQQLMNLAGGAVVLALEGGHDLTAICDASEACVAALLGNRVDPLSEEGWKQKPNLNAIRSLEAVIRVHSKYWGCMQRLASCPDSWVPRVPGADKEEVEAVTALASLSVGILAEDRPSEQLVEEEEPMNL
Outline: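 Two-step fluorogenic readout: class IIa-selective trifluoroacetyl-lysine AMC substrate (50 μM) deacetylated by N-terminal GST-HDAC7 fragment (0.001 ng/ul), then digested by developer, Ex/Em 360/460. Reaction: 30 min, room temperature, Tris-HCl pH 8.0, NaCl/KCl/MgCl2, 1 mg/mL BSA, 1% DMSO.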

Human HDAC11 = target: T3, Human HDAC11 (Homo sapiens, UniProt Q96DB2); assay: HDAC11 biochemical assay, class IIa-specific substrate; settings: read-out: HDAC Isoform IC50 (nM) 11
T3 construct: Human HDAC11 (full length); His (N); host or cells: baculovirus expression system
T3 sequence (Q96DB2 1-347): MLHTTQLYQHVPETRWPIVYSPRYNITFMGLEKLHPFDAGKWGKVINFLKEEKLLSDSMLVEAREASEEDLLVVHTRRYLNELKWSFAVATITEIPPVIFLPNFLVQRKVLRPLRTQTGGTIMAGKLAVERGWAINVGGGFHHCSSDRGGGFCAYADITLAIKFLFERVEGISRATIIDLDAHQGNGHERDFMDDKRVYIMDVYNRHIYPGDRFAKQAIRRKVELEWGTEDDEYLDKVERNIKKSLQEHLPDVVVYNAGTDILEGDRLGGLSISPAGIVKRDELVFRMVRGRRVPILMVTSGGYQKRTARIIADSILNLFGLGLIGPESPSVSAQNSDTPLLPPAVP
Procedure: as §1, §2
Human HDAC11 (full length) (GenBank Accession No. NM_024827) with N-terminal His tag, MW=42.9 kDa, expressed in baculovirus expression system.
as §3
HDAC11: 5 ng/ul HDAC11 and 50 μMHDAC substrate are in the reaction buffer with 1% DMSO final. Incubate for 30 minutes at 30° C.
as §4, §5

SMILES | IC50 (Human HDAC8) [nM] | IC50 (Human HDAC7) [nM] | IC50 (Human HDAC11) [nM]
Cc1cncc(N(Cc2ccc(-c3noc(C(F)(F)F)n3)s2)c2cnccn2)n1 [Example BP, 6-Methyl-N-(pyrazin-2-yl)-N-({5-[5-(trifluoromethyl)-1,2,4-oxadiazol-3-yl]thiophen-2-yl}methyl)pyrazin-2-amine] | ≤ 10000 | ≤ 10000 | > 10000
O=C(c1cnnc(N(Cc2ccc(-c3noc(C(F)(F)F)n3)s2)c2cnccn2)c1)N1CCC(F)(F)CC1 [Example FY, 5-(4,4-Difluoropiperidine-1-carbonyl)-N-(pyrazin-2-yl)-N-({5-[5-(trifluoromethyl)-1,2,4-oxadiazol-3-yl]thiophen-2-yl}methyl)pyridazin-3-amine] | ≤ 10000 | ≤ 10000 | > 10000
O=C(c1ccc(N(Cc2ccc(-c3noc(C(F)(F)F)n3)s2)c2cnccn2)nn1)N1CC[S+]([O-])CC1 [Example FD, 4-{6-[(Pyrazin-2-yl)({5-[5-(trifluoromethyl)-1,2,4-oxadiazol-3-yl]thiophen-2-yl}methyl)amino]pyridazine-3-carbonyl}-1lambda4-thiomorpholin-1-one] | ≤ 10000 | ≤ 500 | > 10000
FC(F)(F)c1nc(-c2ccc(CN(c3cnccn3)c3cc(CN4CCCC4)ccn3)s2)no1 [Example GG, N-{4-[(Pyrrolidin-1-yl)methyl]pyridin-2-yl}-N-({5-[5-(trifluoromethyl)-1,2,4-oxadiazol-3-yl]thiophen-2-yl}methyl)pyrazin-2-amine] | ≤ 10000 | ≤ 1000 | > 10000
O=C(c1ccc(N(Cc2ccc(-c3noc(C(F)(F)F)n3)s2)c2cnccn2)nn1)N1CCC12COC2 [Example FH, 6-{6-Oxa-1-azaspiro[3.3]heptane-1-carbonyl}-N-(pyrazin-2-yl)-N-({5-[5-(trifluoromethyl)-1,2,4-oxadiazol-3-yl]thiophen-2-yl}methyl)pyridazin-3-amine] | ≤ 10000 | ≤ 500 | > 10000

Continued, values first:

IC50 (Human HDAC8) [nM] | IC50 (Human HDAC7) [nM] | IC50 (Human HDAC11) [nM] | SMILES
≤ 10000 | ≤ 1000 | > 10000 | O=C(c1cnnc(N(Cc2ccc(-c3noc(C(F)(F)F)n3)s2)c2cnccn2)c1)N1CCC1 [Example FS, 5-(Azetidine-1-carbonyl)-N-(pyrazin-2-yl)-N-({5-[5-(trifluoromethyl)-1,2,4-oxadiazol-3-yl]thiophen-2-yl}methyl)pyridazin-3-amine]
≤ 10000 | ≤ 10000 | > 10000 | O=C(O)c1cnnc(N(Cc2ccc(-c3noc(C(F)(F)F)n3)s2)c2cnccn2)c1 [Example DW, 6-[(Pyrazin-2-yl)({5-[5-(trifluoromethyl)-1,2,4-oxadiazol-3-yl]thiophen-2-yl}methyl)amino]pyridazine-4-carboxylic acid]
≤ 10000 | ≤ 500 | > 10000 | NC(=O)c1ccc(N(Cc2ccc(-c3noc(C(F)(F)F)n3)s2)c2cnccn2)nn1 [Example DQ, 6-[(Pyrazin-2-yl)({5-[5-(trifluoromethyl)-1,2,4-oxadiazol-3-yl]thiophen-2-yl}methyl)amino]pyridazine-3-carboxamide]
≤ 10000 | ≤ 1000 | > 10000 | O=C(c1cnnc(N(Cc2ccc(-c3noc(C(F)(F)F)n3)s2)c2cnccn2)c1)N1CC2(COC2)C1 [Example FZ, 5-{2-Oxa-6-azaspiro[3.3]heptane-6-carbonyl}-N-(pyrazin-2-yl)-N-({5-[5-(trifluoromethyl)-1,2,4-oxadiazol-3-yl]thiophen-2-yl}methyl)pyridazin-3-amine]
≤ 10000 | ≤ 10000 | > 10000 | CC(F)(F)c1cnnc(N(Cc2ccc(-c3noc(C(F)(F)F)n3)s2)c2cnccn2)c1 [Example GU, 5-(1,1-Difluoroethyl)-N-(pyrazin-2-yl)-N-({5-[5-(trifluoromethyl)-1,2,4-oxadiazol-3-yl]thiophen-2-yl}methyl)pyridazin-3-amine]
